Assay: Cachexia markers Part I: serum albumin, pre-albumin, C-Reactive Protein, Phase I study; as to C-Reactive Protein, Change from Baseline, Mean: test concentration or dose not given here; as to C-Reactive Protein, Change from Baseline, Median: test concentration or dose not given here; as to C-Reactive Protein, Observed Values, Mean: test concentration or dose not given here; as to C-Reactive Protein, Observed Values, Median: test concentration or dose not given here; as to Pre-albumin, Change from Baseline, Mean: test concentration or dose not given here; as to Pre-albumin, Change from Baseline, Median: test concentration or dose not given here; as to Pre-albumin, Observed Values, Mean: test concentration or dose not given here
Assay type: in vivo, human
Conditions: for C-Reactive Protein, Change from Baseline, Mean / C-Reactive Protein, Change from Baseline, Median / C-Reactive Protein, Observed Values, Mean / C-Reactive Protein, Observed Values, Median / Pre-albumin, Change from Baseline, Mean / Pre-albumin, Change from Baseline, Median / Pre-albumin, Observed Values, Mean / Pre-albumin, Observed Values, Median / Serum Albumin, Change from Baseline, Mean / Serum Albumin, Change from Baseline, Median / Serum Albumin, Observed Values, Mean / Serum Albumin, Observed Values, Median: ITT
From the text: The data for albumin, LDH and Bilirubin support claims reciting improvement in liver function by claimed treatment of a human host in need thereof. Serum LDH levels are an established strong independent negative prognostic factor, inversely related to survival in a great variety of adverse clinical conditions. In advanced refractory cancers, high LDH and low Karnofsky's performance status are among the strongest established independent negative prognostic factors of survival and quality of life (29).

Nc1ncnc2c1ncn2[C@@H]1O[C@H](COP(=O)(O)OP(=O)(O)OP(=O)(O)O)[C@@H](O)[C@H]1O [ATP, adenosine 5′-triphosphate]
C-Reactive Protein, Change from Baseline, Mean (Week 4 (Infusion 4), N=9): 2.5 mg/dL | C-Reactive Protein, Change from Baseline, Median (Week 4 (Infusion 4), N=9): 1.6 mg/dL | C-Reactive Protein, Observed Values, Mean (Week 4 (Infusion 4), N=9): 6.6 mg/dL | C-Reactive Protein, Observed Values, Median (Week 4 (Infusion 4), N=9): 6.1 mg/dL | Pre-albumin, Change from Baseline, Mean (Week 4 (Infusion 4), N=10): -1.3 mg/dL | Pre-albumin, Change from Baseline, Median (Week 4 (Infusion 4), N=10): 0.0 mg/dL | Pre-albumin, Observed Values, Mean (Week 4 (Infusion 4), N=10): 16.5 mg/dL | Pre-albumin, Observed Values, Median (Week 4 (Infusion 4), N=10): 17.0 mg/dL | Serum Albumin, Change from Baseline, Mean (Week 4 (Infusion 4), N=11): -0.2 g/dL | Serum Albumin, Change from Baseline, Median (Week 4 (Infusion 4), N=11): -0.2 g/dL | Serum Albumin, Observed Values, Mean (Week 4 (Infusion 4), N=11): 3.2 g/dL | Serum Albumin, Observed Values, Median (Week 4 (Infusion 4), N=11): 3.0 g/dL | C-Reactive Protein, Change from Baseline, Mean (Week 6 (Infusion 6), N=8): 0.2 mg/dL | C-Reactive Protein, Change from Baseline, Median (Week 6 (Infusion 6), N=8): 0.0 mg/dL | C-Reactive Protein, Observed Values, Mean (Week 6 (Infusion 6), N=8): 4.5 mg/dL | C-Reactive Protein, Observed Values, Median (Week 6 (Infusion 6), N=8): 2.5 mg/dL | Pre-albumin, Change from Baseline, Mean (Week 6 (Infusion 6), N=8): -7.5 mg/dL | Pre-albumin, Change from Baseline, Median (Week 6 (Infusion 6), N=8): -4.5 mg/dL | Pre-albumin, Observed Values, Mean (Week 6 (Infusion 6), N=8): 16.6 mg/dL | Pre-albumin, Observed Values, Median (Week 6 (Infusion 6), N=8): 16.0 mg/dL | Serum Albumin, Change from Baseline, Mean (Week 6 (Infusion 6), N=9): -0.1 g/dL | Serum Albumin, Change from Baseline, Median (Week 6 (Infusion 6), N=9): -0.2 g/dL | Serum Albumin, Observed Values, Mean (Week 6 (Infusion 6), N=9): 3.2 g/dL | Serum Albumin, Observed Values, Median (Week 6 (Infusion 6), N=9): 3.1 g/dL | C-Reactive Protein, Change from Baseline, Mean (Week 8 (Infusion 8), N=6): 3.7 mg/dL | C-Reactive Protein, Change from Baseline, Median (Week 8 (Infusion 8), N=6): 0.0 mg/dL | C-Reactive Protein, Observed Values, Mean (Week 8 (Infusion 8), N=6): 9.0 mg/dL | C-Reactive Protein, Observed Values, Median (Week 8 (Infusion 8), N=6): 4.7 mg/dL | Pre-albumin, Change from Baseline, Mean (Week 8 (Infusion 8), N=7): -6.3 mg/dL | Pre-albumin, Change from Baseline, Median (Week 8 (Infusion 8), N=7): -4.0 mg/dL | Pre-albumin, Observed Values, Mean (Week 8 (Infusion 8), N=7): 19.6 mg/dL | Pre-albumin, Observed Values, Median (Week 8 (Infusion 8), N=7): 19.0 mg/dL | Serum Albumin, Change from Baseline, Mean (Week 8 (Infusion 8), N=7): -0.1 g/dL | Serum Albumin, Change from Baseline, Median (Week 8 (Infusion 8), N=7): -0.1 g/dL | Serum Albumin, Observed Values, Mean (Week 8 (Infusion 8), N=7): 3.3 g/dL | Serum Albumin, Observed Values, Median (Week 8 (Infusion 8), N=7): 3.4 g/dL | C-Reactive Protein, Change from Baseline, Mean (Week 10 (Follow-up), N=4): 6.0 mg/dL | C-Reactive Protein, Change from Baseline, Median (Week 10 (Follow-up), N=4): -0.7 mg/dL | C-Reactive Protein, Observed Values, Mean (Week 10 (Follow-up), N=4): 11.2 mg/dL | C-Reactive Protein, Observed Values, Median (Week 10 (Follow-up), N=4): 7.0 mg/dL | Pre-albumin, Change from Baseline, Mean (Week 10 (Follow-up), N=6): -8.3 mg/dL | Pre-albumin, Change from Baseline, Median (Week 10 (Follow-up), N=6): -1.0 mg/dL | Pre-albumin, Observed Values, Mean (Week 10 (Follow-up), N=6): 20.2 mg/dL | Pre-albumin, Observed Values, Median (Week 10 (Follow-up), N=6): 18.5 mg/dL | Serum Albumin, Change from Baseline, Mean (Week 10 (Follow-up), N=6): 0.0 g/dL | Serum Albumin, Change from Baseline, Median (Week 10 (Follow-up), N=6): -0.1 g/dL | Serum Albumin, Observed Values, Mean (Week 10 (Follow-up), N=6): 3.6 g/dL | Serum Albumin, Observed Values, Median (Week 10 (Follow-up), N=6): 3.7 g/dL | C-Reactive Protein, Change from Baseline, Mean (Week 13 (Follow-up), N=5): 5.3 mg/dL | C-Reactive Protein, Change from Baseline, Median (Week 13 (Follow-up), N=5): 0.0 mg/dL | C-Reactive Protein, Observed Values, Mean (Week 13 (Follow-up), N=5): 9.1 mg/dL | C-Reactive Protein, Observed Values, Median (Week 13 (Follow-up), N=5): 0.4 mg/dL | Pre-albumin, Change from Baseline, Mean (Week 13 (Follow-up), N=5): -8.4 mg/dL | Pre-albumin, Change from Baseline, Median (Week 13 (Follow-up), N=5): 0.0 mg/dL | Pre-albumin, Observed Values, Mean (Week 13 (Follow-up), N=5): 22.4 mg/dL | Pre-albumin, Observed Values, Median (Week 13 (Follow-up), N=5): 24.0 mg/dL | Serum Albumin, Change from Baseline, Mean (Week 13 (Follow-up), N=6): -0.0 g/dL | Serum Albumin, Change from Baseline, Median (Week 13 (Follow-up), N=6): -0.1 g/dL | Serum Albumin, Observed Values, Mean (Week 13 (Follow-up), N=6): 3.5 g/dL | Serum Albumin, Observed Values, Median (Week 13 (Follow-up), N=6): 3.5 g/dL | levels of C-Reactive Protein (after 13 weeks): continued to increase | levels of pre-albumin (after 13 weeks): decreased | serum albumin levels (after 13 weeks): stabilize and prevent a drop
